ChEMBL document CHEMBL4304764, “Identification of a RIP1 Kinase Inhibitor Clinical Candidate (GSK3145095) for the Treatment of Pancreatic Cancer” (ACS Med Chem Lett, 2019)

Columns and labels:
[1] = Chromatographic hydrophobicity index, log D of the compound at pH 7.4 by RP-HPLC analysis; format: physicochemical; conditions: buffer
[2] = AUC (0 to infinity) in rat at 2 mg/kg, po; format: ADME, organism-based; parameters: dose 2 mg/kg, route oral, time infinity; conditions: in vivo
[3] = Clearance in dog at 1.1 mg/kg, iv relative to liver blood flow; format: ADME, organism-based, Canis lupus familiaris; conditions: in vivo
[4] = Cmax in dog at 2 mg/kg, po; format: ADME, organism-based, Canis lupus familiaris; parameters: dose 2 mg/kg, route oral; conditions: in vivo
[5] = Clearance in rat at 1 mg/kg, iv; format: ADME, organism-based; conditions: in vivo
[6] = Metabolic stability in monkey hepatocytes in presence of NADPH; format: ADME, cell-based, Macaca mulatta, Hepatocyte; conditions: rhesus monkey
[7] = Clearance in rat at 1 mg/kg, iv relative to liver blood flow; format: ADME, organism-based; conditions: in vivo
[8] = AUC in monkey at […], po; format: ADME, organism-based, Macaca mulatta; conditions: rhesus monkey, in vivo
[9] = AUC in rat at […], po; format: ADME, organism-based; conditions: in vivo
[10] = Volume of distribution at steady state in dog at 1.1 mg/kg, iv; format: ADME, organism-based, Canis lupus familiaris; conditions: in vivo, read-out: Vdss
[11] = Cmax in rat at […], po; format: ADME, organism-based; parameters: dose 2.1 mg/kg, route oral; conditions: in vivo
[12] = Clearance in monkey at […], iv relative to liver blood flow; format: ADME, organism-based, Macaca mulatta; conditions: rhesus monkey, in vivo
[13] = Clearance in dog at 1.1 mg/kg, iv; format: ADME, organism-based, Canis lupus familiaris; conditions: in vivo
[14] = AUC in dog at 2 mg/kg, po; format: ADME, organism-based, Canis lupus familiaris; conditions: in vivo
in vivo [15] = conditions: rat, po
[16] = Metabolic stability in rat hepatocytes in presence of NADPH; format: ADME, cell-based, Hepatocyte
[17] = Volume of distribution at steady state in rat at 1 mg/kg, iv; format: ADME, organism-based; conditions: in vivo, read-out: Vdss
[18] = Metabolic stability in human hepatocytes in presence of NADPH; format: ADME, cell-based, Hepatocyte
[19] = Half life in monkey at […], iv; format: ADME, organism-based, Macaca mulatta; conditions: rhesus monkey, in vivo
in vivo [20] = conditions: dog, po, 2 mg/kg
[21] = Half life in rat at 1 mg/kg, iv; format: ADME, organism-based; conditions: in vivo

In the case of O=C(N[C@H]1COc2ccccc2NC1=O)c1cc(Cc2ccccc2)on1, the logD [1] is reported as 5.1.
In the case of O=C(N[C@H]1COc2ccccc2NC1=O)c1n[nH]c(Cc2ccccc2)n1, the AUC(0-inf) [2] is reported as 2500 ng·h/mL and the logD [1] is reported as 3.
Compound O=C(N[C@H]1CCc2cc(F)cc(F)c2NC1=O)c1n[nH]c(Cc2ccccc2)n1 has a CL [3] of 18%, a Cmax [4] of 0.91 µg/mL and an AUC(0-inf) [2] of 1100 ng·h/mL. For the same compound, the clearance [5] was 27 mL/min/kg, the Stability [6] was “Stable” and the CL [7] was 35%. For the same compound, the AUC [8] was 4.4 µg·h/mL, the logD [1] was 3.4 and the AUC [9] was 1100 ng·h/mL. The Vd [10] was 1.1 L/kg, the Cmax [11] was 0.32 µg/mL and the CL [12] was 15%. For the same compound, the clearance [13] was 9.8 mL/min/kg, the AUC [14] was 2500 ng·h/mL and the Tmax (in vivo [15]) was 49.8 min. For the same compound, the Stability [16] was “Stable”, the Vd [17] was 1.8 L/kg and the Stability [18] was “Stable”. For the same compound, the t1/2 [19] was 4.2 h, the Tmax (in vivo [20]) was 45 min and the half-life [21] was 132 min.
CN1C(=O)[C@@H](NC(=O)c2n[nH]c(Cc3ccccc3)n2)CCc2cc(F)cc(F)c21 showed an AUC(0-inf) [2] of 160 ng·h/mL and a logD [1] of 4.3.
Compound O=C(N[C@H]1CCc2ccccc2NC1=O)c1n[nH]c(Cc2ccccc2)n1 has a logD [1] of 3.1.
In the case of CN1C(=O)[C@@H](NC(=O)c2n[nH]c(Cc3ccccc3)n2)CCc2ccccc21, the AUC(0-inf) [2] is reported as 310 ng·h/mL and the logD [1] is reported as 3.8.
